From US9962388B2, “Pyrrolopyrimidine compounds used as TLR7 agonist” (priority 2014, dated 2018)
Blank lines part the entries; values can stand above or below the compound they belong to.

Columns and labels:
[1] = system: human peripheral blood mononuclear cells (PBMC); assay: Peripheral blood mononuclear cell assay (cytokine induction, CBA); assay type: cell-based; conditions: Homo sapiens, PBMC, 24 h, human PBMC, 24 h, Minimal Effective Concentration; read-out: INF-α MEC
Description: Peripheral Blood Mononuclear Cell Assay The purpose of this example is to determine the expression level of cytokines 24 h after stimulation to human peripheral blood mononuclear cells (PBMC) with the compounds. The cell supernatant was assayed without dilution and the levels of IFN-α and TNF-α were directly determined. The compound was firstly formulated into 20 mM DMSO stock solution and was gradient diluted with cell medium in 10-fold with the total number of 11 diluting points. The compounds in 9 diluting points (the highest concentration was 200 μmol/L) were added into 96-well plate with 50 μL in each well. Fresh human peripheral blood mononuclear cells were inoculated, with 150 μL in each well containing 450,000 cells. The cell culture plate was incubated in an incubator at 37° C., 5% CO2 for 24 h. After incubation, the culture plate was centrifuged at 1200 rpm for 5 min and the supernatant was collected and stored at −20° C. for determination. The determination of cytokine was performed using Cytometric Bead Array (CBA) of BD-Pharmingen on flow cytometer. Using the above determining method, the lowest drug concentration stimulating cytokine level which is over 3 times greater than the lowest detectable limit was designated as the MEC (Minimal Effective Concentration) value in the cytokine stimulating test.

[2] = target: Toll-like receptor 7 (Homo sapiens (Human), UniProt Q9NYK1); assay: Toll-like receptor 7 in vitro receptor binding activity screen (HEK-blue hTLR7 cell, alkaline phosphatase/Quanti-Blue readout); assay type: cell-based; conditions: HEK-blue hTLR7 cell, 24 h; read-out: TLR7 EC50
Chain of Toll-like receptor 7 (Q9NYK1 27-1049): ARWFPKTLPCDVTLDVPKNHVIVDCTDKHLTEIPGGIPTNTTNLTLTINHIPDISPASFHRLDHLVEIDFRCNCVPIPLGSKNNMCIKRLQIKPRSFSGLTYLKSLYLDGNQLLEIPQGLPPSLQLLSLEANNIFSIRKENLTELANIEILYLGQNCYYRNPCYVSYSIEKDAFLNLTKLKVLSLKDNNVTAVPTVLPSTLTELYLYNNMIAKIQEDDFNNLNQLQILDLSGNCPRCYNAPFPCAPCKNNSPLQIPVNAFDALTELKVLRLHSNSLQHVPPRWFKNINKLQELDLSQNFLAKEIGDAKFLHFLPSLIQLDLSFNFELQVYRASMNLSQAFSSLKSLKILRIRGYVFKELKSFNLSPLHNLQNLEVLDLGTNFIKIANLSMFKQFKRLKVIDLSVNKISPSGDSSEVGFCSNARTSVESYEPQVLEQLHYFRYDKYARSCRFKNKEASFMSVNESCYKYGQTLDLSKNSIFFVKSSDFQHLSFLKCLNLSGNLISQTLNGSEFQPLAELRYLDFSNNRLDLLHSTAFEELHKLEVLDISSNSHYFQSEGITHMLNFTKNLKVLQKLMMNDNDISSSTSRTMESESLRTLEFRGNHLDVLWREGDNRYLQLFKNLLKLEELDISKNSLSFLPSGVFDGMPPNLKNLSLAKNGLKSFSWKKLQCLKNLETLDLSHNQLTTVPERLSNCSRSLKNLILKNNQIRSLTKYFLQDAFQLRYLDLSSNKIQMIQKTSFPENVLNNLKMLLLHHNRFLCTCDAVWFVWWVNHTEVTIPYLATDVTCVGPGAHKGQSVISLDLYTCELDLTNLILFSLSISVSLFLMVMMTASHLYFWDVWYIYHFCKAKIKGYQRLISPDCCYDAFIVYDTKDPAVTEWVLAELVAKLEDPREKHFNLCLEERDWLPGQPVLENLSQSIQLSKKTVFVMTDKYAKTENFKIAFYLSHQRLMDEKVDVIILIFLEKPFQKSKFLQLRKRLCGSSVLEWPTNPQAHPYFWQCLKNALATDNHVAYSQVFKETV
Description: Toll-Like Receptor 7 and Toll-Like Receptor 8 In Vitro Receptor Binding Activity Screen
HEK-blue hTLR7 cell and HEK-blue hTLR8 cell (available from InvivoGen)
1. Preparation of 96-well compound plate:
The compounds were gradient diluted with DMSO in 3-fold using liquid work station POD starting at a concentration of 10 mmol/L and 10 points were diluted (2nd column to 11th column, and each point was duplicated). At 12th column, 1 μL of 5 mg/mL positive compound R848 was added as positive control; and at 1st column, 1 μL of DMSO was added as negative control. Each well contained 1 μL of DMSO.
2. The cells in culture flask were collected and the cell density was diluted to 250,000 cells/mL.
3. 200 μL (50,000 cells/well) of cell suspension was added into prepared compound plate and the final concentration of DMSO in each well was 0.5%.
4. The culture plates containing cells and the compounds were incubated in CO2 incubator for 24 h at 37° C., 5% CO2.
5. After 24 h incubation, 20 μL of supernatant was removed from each well to a 96-well transparent assay plate. To each well of the assay plate was added 180 μL of Quanti-Blue reagent and the plate was incubated in an incubator at 37° C., 5% CO2 for 1 h.
6. After 1 h, the content of alkaline phosphatase in 20 μL of supernatant was determined using Microplate Reader OD650.
7. EC50 of each compound was obtained with Prism software.

SMILES: CCCCOc1nc(N)c2[nH]cc(Cc3cccc(CN4CCCC4)c3)c2n1 [Example 4, 2-butoxy-7-(3-(pyrrolidine-1-ylmethyl)benzyl)-5H-pyrrolo[3,2-d]pyrimidine-4-amine]
minimal effective concentration [1]: 0.01 to 100 µM
EC50 [2]: 0.1 to 1 µM

SMILES: CCCCOc1nc(N)c2[nH]cc(Cc3ccc(CN4CCCC4)nc3)c2n1 [Example 22, 2-butoxy-7-((6-(pyrrolidine-1-ylmethyl)pyridine-3-yl)methyl)-5H-pyrrolo[3,2-d]pyrimidine-4-amine]
minimal effective concentration [1]: 0.001 to 0.01 µM
EC50 [2]: 0.1 to 1 µM

SMILES: CCCCOc1nc(N)c2[nH]cc(Cc3ccc4c(c3)CNCC4)c2n1 [Example 28, 2-butoxy-7-((1,2,3,4-tetrahydroisoquinoline-7-yl)methyl)-5H-pyrrolo[3,2-d]pyrimidine-4-amine]
minimal effective concentration [1]: 0.001 to 0.01 µM
EC50 [2]: 0.1 to 1 µM

SMILES: CCCCOc1nc(N)c2[nH]cc(Cc3ccc4c(c3)CN(C)CC4)c2n1 [Example 29, 2-butoxy-7-((2-methyl-1,2,3,4-tetrahydroisoquinoline-7-yl)methyl)-5H-pyrrolo[3,2-d]pyrimidine-4-amine]
minimal effective concentration [1]: 1e-05 to 0.001 µM
EC50 [2]: 0.1 to 1 µM

SMILES: CCCCOc1nc(N)c2[nH]cc(Cc3ccc4c(c3)CN(CC)CC4)c2n1 [Example 30, 2-butoxy-7-((2-ethyl-1,2,3,4-tetrahydroisoquinoline-7-yl)methyl)-5H-pyrrolo[3,2-d]pyrimidine-4-amine]
minimal effective concentration [1]: 0.001 to 0.01 µM
EC50 [2]: 0.1 to 1 µM

SMILES: CCCCOc1nc(N)c2[nH]cc(Cc3ccc4c(c3)CN(C(C)C)CC4)c2n1 [Example 31, 2-butoxy-7-((2-isopropyl-1,2,3,4-tetrahydroisoquinoline-7-yl)methyl)-5H-pyrrolo[3,2-d]pyrimidine-4-amine]
minimal effective concentration [1]: 0.001 to 0.01 µM
EC50 [2]: 0.1 to 1 µM

EC50 [2]: 0.1 to 1 µM
SMILES: COCCOc1nc(N)c2[nH]cc(Cc3ccc(CN4CCCC4)nc3)c2n1 [Example 38, 2-(2-methoxylethoxyl-)-7-((6-(pyrrolidine-1-ylmethyl)pyridine-3-yl)methyl)-5H-pyrrolo[3,2-d]pyrimidine-4-amine]

EC50 [2]: 0.1 to 1 µM
SMILES: COCCOc1nc(N)c2[nH]cc(Cc3ccc(N4CCN(C)CC4=O)cc3)c2n1 [Example 39, 1-(4-((4-amino-2-(2-methoxylethoxyl)-5H-pyrrolo[3,2-d]pyrimidine-7-yl)methyl)phenyl)-4-methylpiperazine-2-one]

SMILES: CCCCOc1nc(N)c2[nH]cc(Cc3ccc(CN4CCCC4)cn3)c2n1 [Example 40, 2-butoxy-7-((5-(pyrrolidine-1-ylmethyl)pyridine-2-yl)methyl)-5H-pyrrolo[3,2-d]pyrimidine-4-amine]
EC50 [2]: 0.1 to 1 µM

SMILES: CCCCOc1nc(N)c2[nH]c(C#N)c(Cc3ccc(CN4CCCC4)nc3)c2n1 [Example 41, 4-amino-2-butoxy-7-((6-(pyrrolidine-1-ylmethyl)pyridine-3-yl)methyl)-5H-pyrrolo[3,2-d]pyrimidine-6-carbonitrile]
EC50 [2]: 0.001 to 0.1 µM

SMILES: CCCCOc1nc(N)c2[nH]c(C#N)c(Cc3ccc(CN4CCCC4)cc3)c2n1 [Example 42, 4-amino-2-butoxy-7-(4-(pyrrolidine-1-ylmethyl)benzyl)-5H-pyrrolo[3,2-d]pyrimidine-6-carbonitrile]
minimal effective concentration [1]: 1e-05 to 0.001 µM
EC50 [2]: 0.001 to 0.1 µM

SMILES: CCCCOc1nc(N)c2[nH]c(C#N)c(Cc3ccc(CN4CCOCC4)cc3)c2n1 [Example 43, 4-amino-2-butoxy-7-(4-(morpholinomethyl)benzyl)-5H-pyrrolo[3,2-d]pyrimidine-6-carbonitrile]
EC50 [2]: 0.001 to 0.1 µM

SMILES: CCCCOc1nc(N)c2[nH]c(C#N)c(Cc3ccc(CN4CCN(C)CC4)cc3)c2n1 [Example 44, 4-amino-2-butoxy-7-(4-((4-methylpiperazine-1-yl)methyl)benzyl)-5H-pyrrolo[3,2-d]pyrimidine-6-carbonitrile]
EC50 [2]: 0.001 to 0.1 µM

SMILES: CCCCOc1nc(N)c2[nH]c(C(N)=O)c(Cc3ccc(CN4CCCC4)cc3)c2n1 [Example 45, 4-amino-2-butoxy-7-(4-(pyrrolidine-1-ylmethyl)benzyl)-5H-pyrrolo[3,2-d]pyrimidine-6-formamide]
EC50 [2]: 0.1 to 1 µM
